Patent publication US20240345090A1, “EARLY DETECTION OF INNATE IMMUNE DYSFUNCTION AND TREATMENT OF CONDITIONS ASSOCIATED THEREWITH” (UNIVERSITY OF FLORIDA RESEARCH FOUNDATION, INCORPORATED, priority 2021, published 2024)
“Also recorded” adds a separate entry of the source.

Assays:
CD14+ monocytes [1] = test: Flow cytometry count of TH+ monocytes after in vitro treatment; assay type: cell-based, human; conditions: 4 hours, TNFα 17 ng/ml; for number of TH+ monocytes, fold change relative to vehicle: healthy donor monocytes, 2 million per well, TPA 100 ng/ml, IL6 17 ng/ml, XPro1595 50 ng/ml, n=3 per group
Description: Monocytes were isolated from total PBMCs prepared as described above^51 using negative selection (Biolegend, 480048) per manufacturer's instructions. Total PBMCs were Fc-blocked to reduce nonspecific binding, followed by incubations with biotin-conjugated antibody cocktail containing antibodies against all subsets except CD14 (negative selection), followed by incubation with magnetic-Avidin beads, allowing all subsets other than CD14+ monocytes to be bound to the magnet. Monocyte purity/enrichment was routinely verified to confirm that the final cell population was greater than 95% pure CD14+ cells (FIG. S2). CD14+ monocytes were collected from the supernatant fraction, washed, counted and density adjusted such that 2 million CD14+ monocytes were seeded per well (FIG. 5A) and treated for 4 hours with vehicle, TPA (100 ng/ml, Biolegend, 755802)^7, TNFα (17 ng/mL, Biolegend, 570102)^61, XPro1595 (50 ng/ml), or IL6 (17 ng/mL) in an ultra-low-adherence 6-well plate (Corning, 3471) to prevent adherence. Suspended cells from each treatment group were aspirated and placed in a 15 ml conical tube, with any remaining adherent cells detached by incubation with 700 uL Accumax solution for 3 minutes (Innovative Cell Technologies, AM105) and added to suspended cells. After pelleting cells by centrifugation (3 minutes×100 g, room temperature), cells were assayed by either flow cytometry^51 or lysed for ELISA as stated above (“Preparation of cell lysates”).
As previously published^51, cells for flow cytometry were fixed and permeabilized (eBioscience, 88-8824-00), and stained for intracellular marker TH (Millipore-Sigma, AB152, 1:100) followed by a species-specific secondary (anti-Rabbit BV421, BD, 565014). After resuspending the sample in a final volume of 250 uL PBS, 5 uL of Invitrogen CountBright Absolute Counting Beads (5000 beads/mL, Invitrogen, C36950) were added just prior to data acquisition (Sony Spectral Analyzer, SP6800). […]

[2] = system: TH protein in human monocytes; test: TH Bio-ELISA on lysates of treated monocytes; assay type: cell-based; conditions: healthy donor monocytes, 4 hours; TNFα 17 ng/ml, IL6 17 ng/ml, XPro1595 50 ng/ml
Description: Adherent cells in culture were lifted using 0.02% EDTA in PBS, diluted with 5 volumes of PBS, and centrifuged at 100×g. Non-adherent cells (PC12) were centrifuged at 100×g for 5 minutes at room temperature, and cell pellets were washed 3 times with 5 volumes of sterile PBS. Primary macrophages and primary murine neuron cultures were washed thrice with ice-cold PBS, on ice. Cell pellets and adherent primary cells were then lysed in ice-cold lysis buffer (10 mM NaCl, 10% glycerol (v/v), 1 mM EDTA, 1 mM EGTA, and HEPES 20 mM, pH 7.6), with Triton X-100 added to a final concentration of 1%, containing 1× protease inhibitor cocktail (Millipore-Sigma, 539131) for one hour at 4° C. with rotation. Resulting lysate was centrifuged at 12,000×g for 15 minutes at 4° C. Supernatant was set aside for protein quantification by Lowry assay (Biorad, 5000112) and the remainder was stored at −80° C. until use for downstream assays.
Antibodies used for ELISA are described in Table 4. […]
Duplicate standard and sample wells were averaged, and background-subtracted based on blank wells. The concentration of TH for each experimental group was calculated using a quadratic curve equation calculated in Graphpad Prism 8, then normalized to total protein concentration per sample as calculated using the Lowry assay. […]

CD14+ monocytes [3] = test: Intracellular flow cytometry for Ki67 (cell proliferation); assay type: cell-based, human; conditions: TNFα treated monocytes
Description: To control for donor variability, identical quantities of counting beads were added as a reference. The number of TH+ monocytes was quantified by flow cytometry (FIG. 6B, left) in two experimental groups: TPA-treated and TNFα-treated. Monocytes in each condition were gated to isolate single cells expressing TH (FIG. 6B). […] A possible mechanism for this observation is either monocyte proliferation during the treatment period or an altered monocyte phenotype in response to TNFα, with no change in total number of monocytes. In other words, following TNFα treatment, TH+ monocytes may either be increasing in number (proliferation) or existing monocytes upregulate TH expression and become TH+ (phenotypic change). While a four-hour exposure to TNFα is an insufficient time period to induce proliferative events in immune cells^74, these possibilities could not be confidently ruled out without additional analyses. Therefore, monocyte proliferation was quantified by comparing the total number of monocytes per microliter of untreated vs. TNFα treated experimental group. […] A more rigorous approach was conducted to assess Ki67 expression as a measure of cell proliferation^87. […] While this finding explains our earlier observation of increased numbers of TH+ cells, the potential phenotypic shift following TNFα mediated immune stimulation was an unpredicted and novel finding.

monocytes = test: Monocyte viability at different TNFα treatment durations; assay type: cell-based, human
Description: There is strong evidence in the literature for increased TNFα in PD^27,34-36 including in the brain, cerebrospinal fluid, and serum of Parkinson's patients^27 as well as in Parkinsonian mice^37,38. […] Therefore, the hypothesis that ex vivo stimulation of monocytes from healthy subjects with TNFα stimulates TH expression was tested, as measured by changes in the number of TH-expressing monocytes, and/or the amount of TH per monocyte. Flow cytometry was employed to address the former, and bio-ELISA to address the latter. Two million monocytes isolated from whole blood of healthy donors were treated for 4 hours with tissue plasminogen activator (TPA, 100 ng/ml, positive control for increased monocyte TH expression^7), TNFα (17 ng/mL)^61 and compared with monocytes treated with vehicle (FIG. 6A). Monocytes were assayed for TH expression by two complementary methods: flow cytometry^51 (FIG. 6B-F) and ELISA (FIG. 6G-H). It is noted that because a prolonged TNFα exposure can induce cell toxicity^82-86, multiple treatment durations were tested. […] Therefore, a 4-hour treatment strategy was selected in this study.

Row | Substance | number of TH+ monocytes, fold change relative to vehicle (CD14+ monocytes [1]) | TH concentration (picogram per milligram total protein) relative to vehicle [2] | Ki67 expression relative to vehicle-treated controls (CD14+ monocytes [3]) | total number of monocytes per microliter, untreated vs. treated (CD14+ monocytes [1]) | cell viability (monocytes; 4-hour TNFα (17 ng/ml) treatment) | cell viability (monocytes; longer TNFα exposure (more than 4 hours))
1 | IL6: interleukin-6 (IL6), a cytokine with pleiotropic effects | no significant change in the number of TH+ monocytes | Neither IL6 nor IL6+XPro1595 significantly increased TH quantity | – | – | – | –
2 | TNFα | significant increases in TH-expressing monocytes relative to vehicle | significantly increased the amount of TH protein; also recorded: significantly increases | no change in Ki67 expression | unchanged | minimal effect on cell viability | substantially decreased cell viability
